From paper PMC12040169 (PLOS Biology, 2025)

assay: in vitro; details: human, hela cells, % viability

| SMILES | viability at 28.5 h, 10 µM [%] |
| --- | --- |
| Cc1cc(S(=O)(=O)CC#N)c(C)cc1Cl [CBK018672] | 89.2 |
| CC1OCN(c2ccc(C(C)(C)C)cc2)Cn2c1nc1ccccc12 (stereo not drawn) [CBK018706] | 88 |
| CCN(CC)S(=O)(=O)c1c(C)[nH]c(=O)[nH]c1=O [CBK018721] | 94.1 |
| Cc1c(-c2ccnc(N)n2)nnn1-c1ccc(Cl)cc1Cl [CBK018733] | 65.5 |
| O=[N+]([O-])c1ccc(N/N=C/c2cnn(-c3ccccc3)c2)cc1 [CBK018746] | 94 |
| N#C/C(=N/Nc1ccc(Br)cc1)C1=NC(=O)CS1 [CBK018747] | 96 |
| CC(C)(C)SCCNc1nc(Cl)nc(N2CCSCC2)n1 [CBK018768] | 80.2 |
| CC(C)c1cc(C(C)C)c(S(=O)(=O)n2cnc3c2c(=O)[nH]c(=O)n3C)c(C(C)C)c1 [CBK018772] | 107 |
| CCc1nnc(NC(=O)COC(=O)CSc2nc(C)cc(C)n2)s1 [CBK018792] | 90.9 |
| S=C(Nc1ccccc1Cl)Nc1ccccc1-n1cccc1 [CBK018806] | 81.6 |
| CC(C)(C)C1CCC(=NNC(=O)c2ccc(CN3CCOCC3)cc2)CC1 (stereo not drawn) [CBK018812] | 97.9 |
| CNCS(=O)(=O)C(F)(F)S(=O)(=O)N(C)C [CBK018820] | 89.7 |
| O=c1nc(NN=C2CCCCC2)cn[nH]1 [CBK018838] | 90.8 |
| CCCc1nnc(C(=O)NC(=O)NCCCN(C)C)s1 [CBK018853] | 84.3 |
| COc1ccc(C2SCCCS2)cc1C(C)(C)C [CBK018886] | 105 |
| COc1ccc(/N=C(/Nc2cccc(C(F)(F)F)c2)SC)cc1 [CBK018896I] | 98.4 |
| O=C(Nc1cccc(C(F)(F)F)c1)c1cnsn1 [CBK018923] | 88.9 |
| O=C(O)CSc1nnc2ccc(C(F)(F)F)cn12 [CBK018930] | 81.3 |
| CC1=NN(C(=O)NS(=O)(=O)c2ccccc2Cl)C(C)(C)C1 [CBK018947] | 120 |
| COc1cc(Cl)nnc1Cl [CBK018956] | 108 |
| CC1(c2ccc(Br)cc2)NC(=O)CS1 (stereo not drawn) [CBK018962] | 92.2 |
| O=C(NC(S(=O)O)C(F)(F)F)OCc1ccccc1 (stereo not drawn) [CBK018979] | 87 |
| C1CN2CCC1/C(=N\Nc1nnn[nH]1)C2 [CBK019005C] | 93.8 |
| CN(C)c1nc2n(c(=O)n1)CCS2 [CBK019025] | 92.3 |
| CC(=O)Nc1ccc(-c2nc[nH]c2Br)cc1 [CBK019063] | 88 |
| COC(=O)c1ccc(SCc2nc(N3CCOCC3)c3c(c2C#N)CC(C)(C)OC3)o1 [CBK019077] | 114 |

| SMILES | viability at 28.5 h, 10 µM [%] |
| --- | --- |
| FC(F)(F)c1csc(Nc2ccc(Cl)c(Cl)c2)n1 [CBK019093] | 85.6 |
| CC(C)(C)NCCN1CCn2c1nc1ccccc12 [CBK019113] | 82 |
| CC1CCCC(C)N1c1nn(C)c(=O)[nH]1 (stereo not drawn) [CBK019114] | 100 |
| Cc1ccc(C)n1C1CC(C)(C)NC(C)(C)C1 [CBK019116] | 91.1 |
| COc1ccc2sc(Br)c(C(=O)O)c2c1 [CBK019180] | 103 |
| COC(=O)CNC(c1ccccc1)c1cc(Br)ccc1N (stereo not drawn) [CBK019222] | 96.8 |
| Cc1cc(=O)[nH]c(SCC(=O)O)c1C#N [CBK019224] | 116 |
| Cc1cc(Oc2ccc(Cl)cc2Cl)nc(OCC#N)n1 [CBK019232] | 96.9 |
| O=S1(=O)CCC(SCc2ccccc2)C1 (stereo not drawn) [CBK019237] | 89.1 |
| CN(C)c1ccc(/C=N/N=C2\NC(=O)CS2)cc1 [CBK019273] | 60.6 |
| O=C(CN1CCOCC1)c1ccc(O)o1 [CBK019286] | 95.4 |
| Cc1ccc(C(=O)C2CCN(S(=O)(=O)c3ccc(Cl)c(Cl)c3)CC2)cc1 [CBK019294] | 106 |
| CCCCCCC1N=NC(c2ccc(F)cc2)=CN1O (stereo not drawn) [CBK019298] | 94.8 |
| O=S1(=O)N=C(c2cccs2)C=C(C(F)(F)F)N1 [CBK019309] | 106 |
| COc1nc(OC)nc(Sc2ccc(N)cc2)n1 [CBK019319] | 88.3 |
| N#Cc1c(-c2ccc(Cl)cc2)c[nH]c1N [CBK019323] | 104 |
| CC(C)(C)OC(=O)N(Cc1cccs1)S(C)(=O)=O [CBK019338] | 94.1 |
| CN1CCN(CC(=O)N/N=C/C2CC=CCC2)CC1 (stereo not drawn) [CBK019340] | 89.6 |
| CCP(CC)c1ccc(C(=O)O)cc1 [CBK019342B] | 91.1 |
| CSc1ccc(CN(C)CCN(C)C)cc1 [CBK019349] | 97.9 |
| CC1CN(C2(n3nnc4ccccc43)CCC(C(C)(C)C)CC2)CC(C)O1 (stereo not drawn) [CBK019373] | 98.5 |
| O=S(=O)(c1ccc(C2=CSC3=NCCN23)cc1)N1CCOCC1 [CBK019381] | 101 |
| CSc1nn(C)c(=S)c2c3c(oc12)CCC3 [CBK019474] | 92.3 |
| CCOC(=O)N/N=C(/C)c1ccc(Br)s1 [CBK019480] | 93.5 |
| CS(=O)(=O)CS(=O)(=O)C1=C(N2CCOCC2)C2CCN1CC2 [CBK019499] | 87.5 |
| CCOc1sc(=S)n(C)c1C(C)=O [CBK019515] | 88 |

| SMILES | viability at 28.5 h, 10 µM [%] |
| --- | --- |
| O=C(CSc1cccs1)Nc1nccs1 [CBK019601] | 88.7 |
| N#Cc1sc(N)c2ccc(-c3ccncc3)nc12 [CBK019761] | 105 |
| NC(=O)NCc1ccc(F)cc1 [CBK019769] | 110 |
| O=[N+]([O-])c1cc(-c2nc(-c3ccco3)c(-c3ccco3)[nH]2)ccc1Br [CBK019778] | 86.3 |
| CO/N=C(N)/C(N)=N/OC [CBK019780] | 98.4 |
| Cc1ccc(CSc2cnc(C(C)(C)C)nc2)cc1 [CBK019832] | 112 |
| O=C1NC(=O)c2c(NC(=O)C3CCCCC3)cccc21 [CBK019837] | 88.3 |
| N/C(=N\O)c1ccc(OC(F)(F)F)cc1 [CBK019865] | 97.2 |
| COc1nc(N)nc(C/C(=N\NC(=O)c2cccnc2)C2CC2)n1 [CBK019872] | 90.9 |
| COc1ccc(-c2sc(C(=O)O)c(C)c2C#N)cc1 [CBK019922] | 101 |
| O=S1(=O)N=C(c2c(O)nc3ccccc3c2O)Nc2ccccc21 [CBK019929] | 90.7 |
| CCSc1nc(SCC)c2c3c([nH]c2n1)CCCC3 [CBK019936] | 94.6 |
| CC(C)(C)c1cc2cc(NC(=O)C3CC3)ccc2[nH]1 [CBK019994] | 115 |
| Nc1nnc(Sc2nccc(C(F)(F)F)n2)s1 [CBK020023] | 99.5 |
| CNC(=S)NCc1ccncc1 [CBK020033] | 106 |
| CCOC(=O)NC(=S)NC(=O)C(C)(C)C [CBK020037] | 100 |
| FC(F)(F)c1nnc2ccc(-n3ccnc3)nn12 [CBK020041] | 96.1 |
| O=S(=O)(c1ccccc1)C1C2C=CC(COC3CCCCO3)(O2)C1S(=O)(=O)c1ccccc1 (stereo not drawn) [CBK020045] | 92.6 |
| CCOC(=O)c1c2c([nH]c(=S)c1C#N)CCCC2 [CBK020049] | 97.6 |
| CCN(CC)c1ccc(/C=N/NC(=O)CC2=NNC(=O)C2)cc1 [CBK020059] | 91.8 |
| O=C(Cn1cncn1)c1ccc2c(c1)CCO2 [CBK020087] | 93.5 |
| CC1CC(=O)C2=C(C1)NN=C(c1cccc(C(F)(F)F)c1)C2 (stereo not drawn) [CBK020138] | 86.9 |
| CN(C)CCN(Cc1ccccn1)c1ncccn1 [CBK020142] | 116 |
| CCCCc1c(Cl)nc(C#N)c2c1CCCC2 [CBK020252] | 98.9 |
| O=S1(=O)N=c2cc3c(c4cccc1c24)=Nc1ccccc1N3 [CBK020253] | 89.9 |
| CN1CCN(CCP(=O)(c2ccccc2)c2ccccc2)CC1 [CBK020260] | 94.1 |

| SMILES | viability at 28.5 h, 10 µM [%] |
| --- | --- |
| CC1CC(/N=C2/NCCS2)CC(C)(C)C1 (stereo not drawn) [CBK020293] | 102 |
| CCCc1onc(S(=O)(=O)c2ccc(C)cc2)c1NC [CBK020322] | 84.3 |
| CC(=O)C(C)Oc1ccccc1-n1cccc1 (stereo not drawn) [CBK020334] | 95.9 |
| O=C(O)CCn1oc(=O)c2ccccc21 [CBK020340] | 89.8 |
| O=C1C=C(OCc2ccccc2)CN1 [CBK020360] | 94.4 |
| CC1(C)CN(c2ccc(S(N)(=O)=O)cc2)C1=O [CBK020416] | 90.6 |
| CCCCc1nccn1CCn1ccnc1CCCC [CBK020437] | 88.7 |
| c1csc(-c2cnc3ccccc3n2)c1 [CBK020525] | 93.2 |
| O=C(NCCc1nc2ccccc2[nH]1)c1cccs1 [CBK020529] | 99.4 |
| COc1ccc(OC)c(/N=C2\CC(=O)CC(C)(C)C2)c1 [CBK020541] | 106 |
| O=C(O)CNCCC(=O)c1ccc([N+](=O)[O-])cc1 [CBK020544] | 87 |
| CCOC(=O)c1ncoc1-c1ccc(Cl)cc1Cl [CBK020578] | 90.2 |
| CC(=O)Cn1nnnc1C [CBK020588] | 99.6 |
| CC(C)CS(=O)(=O)Nc1ccc(F)cc1F [CBK020615] | 91.9 |
| OCCSCc1ccc2nonc2c1 [CBK020617] | 107 |
| CN(C)C(c1ccc2c(c1)OCO2)c1nnnn1C1CCCCC1 (stereo not drawn) [CBK020620] | 103 |
| O=C1CSC(c2cccc(Cl)c2Cl)N1C1CCCCC1 (stereo not drawn) [CBK020678] | 96.7 |
| O=C(Nc1ccc2[nH]c(C3CCCCC3)nc2c1)C1CCCCC1 [CBK020680] | 87.7 |
| CC(C)(C)SCCNC(=S)NCCO [CBK020686] | 98.7 |
| CSc1cc(C)c(O)c(CO)c1 [CBK020687] | 85.7 |
| CCc1c(C)nc2nnc(NC(=O)C(F)(F)F)n2c1O [CBK020762] | 102 |
| COc1nc(OC)nc(OC2=CC(=O)CC(C)(C)C2)n1 [CBK020772] | 95.5 |
| CC1=C(CCN2CCCC(CO)C2)C(C)(C)CCC1 (stereo not drawn) [CBK020827] | 88.2 |

same assay, conditions: human, hela cells, % viability, bulk resorufin, single well

| SMILES | viability at 28.5 h, 10 µM [%] |
| --- | --- |
| O=C1OC(c2c(O)nc(=O)[nH]c2O)c2ccccc21 (stereo not drawn) [CBK019775] | 113 |
